Measurements reported in paper PMC11597817, “Modulation of Multispecific Transporters by Uncaria tomentosa Extract and Its Major Phytoconstituents” (Pharmaceutics, 2024).
Read-outs that look alike come from different tables or passages of the source.

Tests used:
MDR1 = target: T1, MDR1 (Homo sapiens, UniProt P08183); experiment: Vesicular transport inhibition assay, MDR1 membrane vesicles; format: biochemical; conditions: for Igut/IC50 ratio: MDR1, Igut = dose/250 mL, 500 mg dose of UT extract, ICH M12 cut-off 10; for IC50: oxindole alkaloids, substrate NMQ, read-out: IC50 (95% CI of IC50)
T1 construct: The cDNA encoding respective transporters were synthetized and cloned by GenScript; host or cells: HEK293 (lentiviral transduction), membrane vesicles
T1 sequence (P08183 whole entry): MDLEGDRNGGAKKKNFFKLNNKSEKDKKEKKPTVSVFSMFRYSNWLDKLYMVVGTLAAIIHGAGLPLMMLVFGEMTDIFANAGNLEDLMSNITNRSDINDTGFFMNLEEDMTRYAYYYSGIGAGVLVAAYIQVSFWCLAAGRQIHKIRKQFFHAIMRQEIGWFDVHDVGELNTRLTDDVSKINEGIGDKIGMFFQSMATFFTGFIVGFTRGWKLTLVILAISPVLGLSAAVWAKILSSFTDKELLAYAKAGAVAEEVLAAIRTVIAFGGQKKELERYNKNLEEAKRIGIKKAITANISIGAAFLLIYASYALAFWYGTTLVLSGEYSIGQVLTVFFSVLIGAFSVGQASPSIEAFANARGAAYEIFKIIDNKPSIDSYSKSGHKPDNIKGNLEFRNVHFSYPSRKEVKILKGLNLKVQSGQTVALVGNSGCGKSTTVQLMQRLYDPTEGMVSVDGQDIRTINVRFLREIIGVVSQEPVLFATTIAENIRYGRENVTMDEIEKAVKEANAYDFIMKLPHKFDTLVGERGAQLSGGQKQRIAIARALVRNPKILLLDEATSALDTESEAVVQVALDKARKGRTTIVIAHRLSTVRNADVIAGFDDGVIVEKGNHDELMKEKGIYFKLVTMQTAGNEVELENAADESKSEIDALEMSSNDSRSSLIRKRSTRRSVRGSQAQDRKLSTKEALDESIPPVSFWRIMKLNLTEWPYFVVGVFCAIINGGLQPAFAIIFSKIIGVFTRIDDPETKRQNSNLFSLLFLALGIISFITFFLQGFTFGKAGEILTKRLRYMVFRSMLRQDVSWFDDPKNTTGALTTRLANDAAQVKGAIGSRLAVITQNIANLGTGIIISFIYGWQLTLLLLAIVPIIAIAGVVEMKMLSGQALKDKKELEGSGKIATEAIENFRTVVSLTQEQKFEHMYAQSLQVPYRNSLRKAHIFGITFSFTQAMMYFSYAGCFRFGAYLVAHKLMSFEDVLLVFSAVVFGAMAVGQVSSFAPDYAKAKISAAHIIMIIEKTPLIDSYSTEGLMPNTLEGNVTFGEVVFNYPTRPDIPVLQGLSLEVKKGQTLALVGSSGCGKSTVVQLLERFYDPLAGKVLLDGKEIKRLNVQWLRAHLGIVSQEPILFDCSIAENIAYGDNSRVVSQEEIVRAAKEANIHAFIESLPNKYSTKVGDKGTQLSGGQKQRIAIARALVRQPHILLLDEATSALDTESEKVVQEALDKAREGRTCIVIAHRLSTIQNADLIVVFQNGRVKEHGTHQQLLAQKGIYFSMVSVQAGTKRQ
From the text: The human embryonic kidney 293 (HEK293) cell line was purchased from Invitrogen/ThermoFisher (Waltham, MA, USA). Madin–Darby canine kidney II (MDCKII) wild type cells were obtained from the European Collection of Authenticated Cell Cultures (ECACC catalog no. 00062107). HEK293 cells overexpressing the human uptake OATP1B1 (NCBI Reference Sequence: NM_006446.4), OATP1B3 (NM_019844), OATP2B1 (NM_007256), OATP1A2 (NM_134431), OAT1-3 (BC033682.1; NM_006672.3; BC022387), OCT1-3 (BC126364.1; NM_003058; NM_021977), OCTN1 (NM_003059.3), NTCP (NM_003049.3), MATE1 (NM_018242.3), MATE2K (NM_001099646.2), ENT4 (NM_001040661.1), SGLT2 (AJ133127.1), ASCT1/2 (NM_003038.5; NM_005628.3), LAT1/2 (NM_003486.6; NM_012244.4), and THTR1/2 (NM_006996; NM_025243) and mock and human efflux BCRP (NM_004827.2), BSEP (NM_003742.2), MDR1 (NM_000927.4), and MRP1-5 (NM_004996; NM_000392.4; BC137347.1; NM_005845.4; NM_005688.2) transporters as well as MDCKII overexpressing human ENT1/2 (NM_001078177; NM_001532.2) and URAT1 (BC053348) transporters were created by lentiviral transduction. The cDNA encoding respective transporters were synthetized and cloned by GenScript (Piscataway, NJ, USA). The production of lentivirus supernatants, the transduction of the cells, cloning, functional characterization, and validation were performed by Charles River Laboratories Hungary Kft. (Budapest, Hungary).
Membrane vesicles were prepared from ABC transporter-overexpressing HEK293 cells by Charles River Laboratories Hungary Kft. as described previously in detail. Vesicles were frozen in liquid nitrogen and stored at −80 °C.
Vesicular transport inhibition assays were performed using a rapid filtration technique. In brief, the appropriate amount of the protein of each membrane vesicle was mixed with either the extract or isopteropodine, mitraphylline, or uncarine D at one concentration or with their half dilution series from 150 µg/mL or from 100 µM, the suitable transporter substrate, and the assay buffer on ice. Reaction mixtures were preincubated for 15 min at 37 °C with shaking at 250 rpm. Following preincubation, 4 mM Mg-ATP or AMP was added and incubated according to Table S3. Vesicular transport was terminated by adding an ice-cold washing buffer, and the reaction mix was transferred to a MSFBN6B10 filter plate (Merck) for filtration. The filter plates were then dried at 40 °C for 4 h, and radiolabeled substrates retained in the vesicles were detected by liquid scintillation counting as described above. For fluorescent substrates, accumulation was measured with a Clariostar^plus microplate reader (BMG Labtech GmbH, Ortenberg, Germany).
The transporter-mediated uptake and ATP-dependent transport were determined by subtracting the activity of the control cell/transporter abundant-membrane in the presence of AMP from the activity of the transporter-overexpressing cell/transporter-abundant membrane in the presence of ATP. The relative transporter-specific accumulation was expressed as the percent of DMSO activity. The results were presented as the mean ± SEM from 3 parallels. More than a 20% reduction in transport activity was considered as inhibition. For the IC50 determination, dose–response curves were fitted using a 4-parameter nonlinear model in GraphPad Prism version 9.0. Confidence intervals (CIs) of 95% were also determined.
Table S3 – Vesicular transport inhibition assay details.
These parameters were set during previous validations. TC: taurocholic acid, E3S: estrone 3 -sulfate,
NMQ: N-methyl-quinidine, E217βG: β-Estradiol 17-(β-D-glucuronide), DHEAS:
Dehydroepiandrosterone sulfate, CDCF: 5(6)-Carboxy-2',7-dichlorofluorescein B.
Parental Transporter Incubation Substrate Substrate µg Incubation
cell time (min) concentration membrane/ temperature

NIH/3T3 = experiment: Antiproliferative MTT assay; format: cell-based, murine; conditions: 30 μM pure natural product, 72 h
Method: For the determination of the antiproliferative properties of the prepared extract and selected alkaloids (isopteropodine, mitraphylline, and uncarine D), an MTT assay was applied on our […] cell panel (see Table S4). […] All were maintained in a minimal essential medium completed with 10% fetal bovine serum, 1% non-essential amino acids, and 1% penicillin–streptomycin at 37 °C in a humidified atmosphere containing 5% CO2. All cell lines were purchased from the European Collection of Cell Cultures (Salisbury, UK), except for SiHa and C33A, which were from the American Tissue Culture Collection, LGC Standards GmbH (Wesel, Germany). Cell culture media and supplements were obtained from Lonza Group Ltd. (Basel, Switzerland). Cells were seeded into 96-well plates (C33A 10,000/well, all others 5000/well); after overnight incubation, the test substances were added and incubated for another 72 h under cell-culturing conditions. Uncaria tomentosa extract and the alkaloids were tested in the 1–90 μg/mL and 1–30 μM ranges, respectively. Finally, 20 μL of 5 mg/mL MTT solution was added to each well and incubated for 4 h; the medium was discarded, and the precipitated formazan crystals were dissolved in DMSO for 60 min with shaking. The absorbance was determined using a microplate reader (SPECTROstar Nano, BMG Labtech GmbH). Two independent experiments were performed with five parallels for each condition. Cisplatin, a clinically used anticancer agent (Ebewe GmbH, Unterach, Austria), was included as a reference compound. Calculations were conducted using the GraphPad Prism 10.0 software (GraphPad Software Inc., San Diego, CA, USA).
Table S4 – Antiproliferative properties of Uncaria tomentosa extract, three natural products (isopteropodine, mitraphylline, and uncarine D) and the
reference agent cisplatin.
Cell line Uncaria tomentosa isopteropodine mitraphylline uncarine D [95% confidence
1: The highest applied concentration was 90 μg/mL and 30 μM for the extract and the pure natural products, respectively.
2: Inhibitions less than 20% compared to the untreated control were regarded as negligible and were not given numerically.

SMILES	inhibitory effect on transporter-specific transport (MDR1; 100 µM alkaloid)	Igut/IC50 ratio (MDR1)	Igut/IC50 ratio (MDR1; listed as Isopteropodine)	IC50 (MDR1) [µM]	Cell growth inhibition at the highest concentration (% ± SEM) (NIH/3T3) [%]	transporter-mediated substrate accumulation (MDR1; in the presence of the alkaloid (100 µM, Figure 4))	IC50 (MDR1; listed as Mitraphylline) [µM]
COC(=O)C1=CO[C@@H](C)[C@@H]2CN3CC[C@@]4(C(=O)Nc5ccccc54)[C@@H]3C[C@H]12 [isopteropodine]	significantly inhibited	< 10	0.82	28.2	< 20	–	–
COC(=O)C1=CO[C@@H](C)[C@H]2CN3CC[C@]4(C(=O)Nc5ccccc54)[C@@H]3C[C@H]12 [mitraphylline]	–	< 10	–	28.3	< 20	below 50%	28.3
